Reference: ChEMBL document CHEMBL1130460, “ADA-Bypass by lipophilic cycloSal-ddAMP pro-nucleotides A second example of the efficiency of the cycloSal-Concept” (Bioorg Med Chem Lett, 1997)

Key:
CCRF-CEM [1] = assay: Cytotoxic activity was evaluated against CEM/O cells; No activity up to > 250 uM; format: functional, cell-based, Homo sapiens
CCRF-CEM [2] = assay: Effective concentration of compound against HIV-2 infected CEM/O cells; No activity up to > 250 uM; format: functional, cell-based, Homo sapiens
CCRF-CEM [3] = assay: Effective concentration of compound against HIV-1 infected CEM/O cells; No activity up to > 250 uM; format: functional, cell-based, Homo sapiens
[4] = Hydrolysis half-life (t1/2) in phosphate buffer at pH 7.3; format: ADME
[5] = Partition coefficient was measured in 1-octanol/phosphate buffer (pH 6.8); format: physicochemical
CCRF-CEM [6] = assay: Effective concentration of compound against HIV-2 infected CEM/O cells; format: functional, cell-based; conditions: Homo sapiens
CCRF-CEM [7] = assay: Effective concentration of compound against HIV-1 infected CEM/O cells; format: functional, cell-based; conditions: Homo sapiens
CCRF-CEM [8] = assay: Cytotoxic activity was evaluated against CEM/O cells; format: functional; conditions: Homo sapiens

Row | EC50 (CCRF-CEM [2]) | EC50 (CCRF-CEM [3]) | Compound | EC50 (CCRF-CEM [1]) | half-life [4] [h] | logD [5] | EC50 (CCRF-CEM [6]) [µM] | EC50 (CCRF-CEM [7]) [µM] | CC50 (CCRF-CEM [8]) [µM]
1 | Not Active | Not Active | Cc1cccc(O)c1CO | Not Active | – | – | – | – | –
2 | – | – | Cc1cccc2c1OP(=O)(OCC1CCC(n3cnc4c(N)ncnc43)O1)OC2 (stereo not drawn) | – | 35.1 | 0.91 | 0.035 | 0.03 | 9.54
3 | – | – | Nc1ncnc2c1ncn2C1CCC(COP2(=O)OCc3ccccc3O2)O1 (stereo not drawn) | – | 8.2 | 0.54 | 0.11 | 0.12 | 21.9
4 | Not Active | Not Active | COc1ccc(CO)c(O)c1 | Not Active | – | – | – | – | –
5 | – | – | Nc1ncnc2c1ncn2[C@H]1CC[C@@H](CO)O1 | – | – | -0.28 | 5.33 | 3.67 | 200
6 | – | – | COc1ccc2c(c1)COP(=O)(OCC1CCC(n3cnc4c(N)ncnc43)O1)O2 (stereo not drawn) | – | 14 | 0.61 | 0.09 | 0.065 | 30.4
7 | Not Active | Not Active | OCc1ccccc1O [SALICYL ALCOHOL] | Not Active | – | – | – | – | –
